{"source": "ChEMBL document CHEMBL4219045", "about": "(Bioorg Med Chem, 2018)", "key": {"[1]": {"biological_target": "Sodium channel protein type 8 subunit alpha (Homo sapiens, UniProt Q9UQD0)", "assay": "Inhibition of Nav1.6 (unknown origin)"}, "[2]": {"biological_target": "Sodium channel protein type 2 subunit alpha (Homo sapiens, UniProt Q99250)", "sequence (Q99250 whole entry)": "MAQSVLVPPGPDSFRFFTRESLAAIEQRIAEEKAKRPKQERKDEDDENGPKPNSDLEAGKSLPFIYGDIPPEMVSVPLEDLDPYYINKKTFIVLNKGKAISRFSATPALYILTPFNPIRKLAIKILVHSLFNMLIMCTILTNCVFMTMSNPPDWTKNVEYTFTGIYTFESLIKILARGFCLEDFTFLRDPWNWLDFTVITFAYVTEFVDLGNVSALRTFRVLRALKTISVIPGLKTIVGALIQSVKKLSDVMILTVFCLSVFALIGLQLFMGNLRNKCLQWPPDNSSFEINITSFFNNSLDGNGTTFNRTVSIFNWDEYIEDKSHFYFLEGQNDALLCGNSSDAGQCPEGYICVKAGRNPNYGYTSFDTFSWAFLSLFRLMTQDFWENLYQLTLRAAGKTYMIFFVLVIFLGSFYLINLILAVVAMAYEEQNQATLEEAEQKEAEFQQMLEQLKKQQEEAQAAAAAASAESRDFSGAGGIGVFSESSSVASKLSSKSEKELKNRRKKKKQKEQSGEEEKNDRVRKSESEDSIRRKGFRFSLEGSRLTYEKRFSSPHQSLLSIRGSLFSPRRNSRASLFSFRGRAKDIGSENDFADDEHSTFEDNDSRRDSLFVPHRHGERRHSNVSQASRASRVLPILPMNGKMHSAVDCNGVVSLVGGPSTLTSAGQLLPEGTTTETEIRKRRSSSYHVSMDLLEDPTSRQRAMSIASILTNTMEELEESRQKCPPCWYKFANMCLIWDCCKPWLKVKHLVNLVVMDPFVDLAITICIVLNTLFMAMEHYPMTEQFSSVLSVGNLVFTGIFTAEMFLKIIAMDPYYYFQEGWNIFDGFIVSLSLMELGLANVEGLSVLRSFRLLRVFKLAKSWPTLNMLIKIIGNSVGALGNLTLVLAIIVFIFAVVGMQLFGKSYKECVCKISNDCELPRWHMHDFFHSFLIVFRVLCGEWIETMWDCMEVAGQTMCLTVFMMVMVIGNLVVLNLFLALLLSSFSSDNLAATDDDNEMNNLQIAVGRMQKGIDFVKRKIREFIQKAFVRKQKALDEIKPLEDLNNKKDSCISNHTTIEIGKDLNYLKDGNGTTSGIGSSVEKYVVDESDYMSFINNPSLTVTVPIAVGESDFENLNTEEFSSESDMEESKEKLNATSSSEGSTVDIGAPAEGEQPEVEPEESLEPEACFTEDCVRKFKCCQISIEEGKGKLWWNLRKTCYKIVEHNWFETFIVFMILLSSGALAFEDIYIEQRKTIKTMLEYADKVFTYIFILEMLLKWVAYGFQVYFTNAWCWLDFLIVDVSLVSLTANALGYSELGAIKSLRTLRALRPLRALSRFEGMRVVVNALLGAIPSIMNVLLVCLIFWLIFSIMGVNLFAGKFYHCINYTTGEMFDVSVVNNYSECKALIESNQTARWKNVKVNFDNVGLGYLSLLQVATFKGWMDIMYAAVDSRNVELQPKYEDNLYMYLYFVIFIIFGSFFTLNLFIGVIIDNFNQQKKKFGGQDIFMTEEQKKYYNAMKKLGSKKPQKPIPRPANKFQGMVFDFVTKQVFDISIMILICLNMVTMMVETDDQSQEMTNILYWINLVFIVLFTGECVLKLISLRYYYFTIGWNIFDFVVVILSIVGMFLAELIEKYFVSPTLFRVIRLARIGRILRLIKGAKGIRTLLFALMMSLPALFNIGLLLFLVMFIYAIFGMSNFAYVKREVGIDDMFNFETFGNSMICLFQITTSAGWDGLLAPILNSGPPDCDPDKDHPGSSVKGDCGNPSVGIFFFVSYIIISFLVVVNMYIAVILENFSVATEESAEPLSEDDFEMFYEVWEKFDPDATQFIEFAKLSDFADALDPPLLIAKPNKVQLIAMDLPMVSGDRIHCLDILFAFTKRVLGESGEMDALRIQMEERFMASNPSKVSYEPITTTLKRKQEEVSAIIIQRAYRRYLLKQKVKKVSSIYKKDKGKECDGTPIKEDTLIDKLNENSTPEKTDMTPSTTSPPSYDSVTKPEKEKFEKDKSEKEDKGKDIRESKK", "assay": "Inhibition of Nav1.2 (unknown origin) expressed in xenopus oocytes at -80 mV holding potential by two-electrode voltage-clamp method", "format": "cell-based"}, "[3]": {"biological_target": "Sodium channel protein type 5 subunit alpha (Homo sapiens, UniProt Q14524)", "sequence (Q14524 whole entry)": "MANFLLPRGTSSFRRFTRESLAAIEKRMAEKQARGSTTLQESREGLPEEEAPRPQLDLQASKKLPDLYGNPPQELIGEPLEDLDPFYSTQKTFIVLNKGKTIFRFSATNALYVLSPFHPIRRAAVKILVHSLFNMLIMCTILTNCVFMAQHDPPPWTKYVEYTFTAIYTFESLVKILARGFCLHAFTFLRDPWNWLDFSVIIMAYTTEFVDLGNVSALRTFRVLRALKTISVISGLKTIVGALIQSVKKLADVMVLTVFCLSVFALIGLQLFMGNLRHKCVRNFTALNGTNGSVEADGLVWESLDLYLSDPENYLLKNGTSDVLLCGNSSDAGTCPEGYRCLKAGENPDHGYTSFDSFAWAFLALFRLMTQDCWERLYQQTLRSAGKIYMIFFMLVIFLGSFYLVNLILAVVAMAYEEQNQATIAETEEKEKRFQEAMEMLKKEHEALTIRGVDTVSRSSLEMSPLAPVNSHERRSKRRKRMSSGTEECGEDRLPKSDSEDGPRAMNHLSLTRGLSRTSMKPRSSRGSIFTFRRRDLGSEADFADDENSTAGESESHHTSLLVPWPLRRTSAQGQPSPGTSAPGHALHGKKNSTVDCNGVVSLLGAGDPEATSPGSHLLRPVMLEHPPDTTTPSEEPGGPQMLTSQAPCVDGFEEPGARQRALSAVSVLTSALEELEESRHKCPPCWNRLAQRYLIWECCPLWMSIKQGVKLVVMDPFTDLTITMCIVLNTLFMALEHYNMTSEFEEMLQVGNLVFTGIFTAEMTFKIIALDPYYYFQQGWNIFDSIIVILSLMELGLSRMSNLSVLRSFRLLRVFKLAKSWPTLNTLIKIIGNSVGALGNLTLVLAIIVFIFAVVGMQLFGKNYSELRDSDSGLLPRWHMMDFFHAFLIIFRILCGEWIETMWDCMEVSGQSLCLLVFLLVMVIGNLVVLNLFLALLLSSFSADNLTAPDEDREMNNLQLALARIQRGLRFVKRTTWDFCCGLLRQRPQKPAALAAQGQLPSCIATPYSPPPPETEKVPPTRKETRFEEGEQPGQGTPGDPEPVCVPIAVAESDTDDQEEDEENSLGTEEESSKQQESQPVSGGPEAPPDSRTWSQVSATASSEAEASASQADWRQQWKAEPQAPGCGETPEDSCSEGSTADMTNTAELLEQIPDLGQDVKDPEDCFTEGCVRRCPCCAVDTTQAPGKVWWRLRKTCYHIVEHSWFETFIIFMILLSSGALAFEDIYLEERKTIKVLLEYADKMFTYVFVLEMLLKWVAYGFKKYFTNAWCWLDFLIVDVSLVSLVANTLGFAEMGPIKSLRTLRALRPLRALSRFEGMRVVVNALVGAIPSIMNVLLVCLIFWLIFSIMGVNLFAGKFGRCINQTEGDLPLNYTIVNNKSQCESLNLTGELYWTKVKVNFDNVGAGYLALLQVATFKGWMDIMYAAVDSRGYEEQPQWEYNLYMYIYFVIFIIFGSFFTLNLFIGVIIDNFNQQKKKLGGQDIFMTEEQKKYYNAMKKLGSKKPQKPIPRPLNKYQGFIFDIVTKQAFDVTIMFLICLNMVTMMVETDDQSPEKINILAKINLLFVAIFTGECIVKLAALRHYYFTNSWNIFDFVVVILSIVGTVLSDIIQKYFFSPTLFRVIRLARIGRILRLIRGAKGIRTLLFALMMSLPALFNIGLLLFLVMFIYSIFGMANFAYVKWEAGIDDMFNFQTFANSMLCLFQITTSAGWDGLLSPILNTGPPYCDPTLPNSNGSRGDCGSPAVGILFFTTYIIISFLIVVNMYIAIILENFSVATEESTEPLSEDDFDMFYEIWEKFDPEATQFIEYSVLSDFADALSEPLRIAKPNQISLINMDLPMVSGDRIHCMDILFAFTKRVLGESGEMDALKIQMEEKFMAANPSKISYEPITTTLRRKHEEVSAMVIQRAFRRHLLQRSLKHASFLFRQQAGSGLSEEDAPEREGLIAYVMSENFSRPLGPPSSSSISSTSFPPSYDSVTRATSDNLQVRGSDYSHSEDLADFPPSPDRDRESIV", "assay": "Inhibition of Nav1.5 (unknown origin) expressed in xenopus oocytes at -80 mV holding potential by two-electrode voltage-clamp method", "format": "cell-based"}, "[4]": {"biological_target": "Acetylcholine receptor subunit epsilon (Homo sapiens, UniProt Q04844)", "assay": "Inhibition of nAChR epsilon (unknown origin)"}, "[5]": {"assay": "Toxicity in mouse", "format": "organism-based", "conditions": "in vivo"}, "[6]": {"biological_target": "T1, Transient receptor potential cation channel subfamily V member 6 (Homo sapiens, UniProt Q9H1D0)", "T1 sequence (Q9H1D0 whole entry)": "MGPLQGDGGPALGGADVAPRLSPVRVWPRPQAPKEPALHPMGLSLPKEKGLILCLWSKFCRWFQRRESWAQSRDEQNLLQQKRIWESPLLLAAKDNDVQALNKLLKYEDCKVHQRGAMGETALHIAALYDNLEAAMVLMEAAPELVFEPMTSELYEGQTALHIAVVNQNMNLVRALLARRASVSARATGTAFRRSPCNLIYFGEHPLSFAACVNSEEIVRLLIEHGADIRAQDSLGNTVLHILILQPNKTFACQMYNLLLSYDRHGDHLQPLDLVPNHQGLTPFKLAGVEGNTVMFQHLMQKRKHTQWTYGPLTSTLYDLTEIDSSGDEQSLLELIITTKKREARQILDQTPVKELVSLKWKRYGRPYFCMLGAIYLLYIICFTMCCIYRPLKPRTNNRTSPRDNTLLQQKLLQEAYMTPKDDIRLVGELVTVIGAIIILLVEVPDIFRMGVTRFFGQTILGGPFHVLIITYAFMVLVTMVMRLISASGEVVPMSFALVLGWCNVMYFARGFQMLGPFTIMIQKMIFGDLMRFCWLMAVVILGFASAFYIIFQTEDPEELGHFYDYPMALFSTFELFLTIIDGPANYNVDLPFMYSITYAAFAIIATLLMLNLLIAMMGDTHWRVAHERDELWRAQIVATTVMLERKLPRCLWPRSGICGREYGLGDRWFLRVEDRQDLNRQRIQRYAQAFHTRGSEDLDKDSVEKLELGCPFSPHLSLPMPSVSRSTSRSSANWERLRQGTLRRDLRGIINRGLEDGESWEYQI", "assay": "Inhibition of TRPV6 (unknown origin) expressed in HEK293 cells by whole cell patch clamp assay", "format": "cell-based"}, "[7]": {"biological_target": "DPP4 (dipeptidyl peptidase 4) (Homo sapiens, UniProt P27487)", "sequence (P27487 whole entry)": "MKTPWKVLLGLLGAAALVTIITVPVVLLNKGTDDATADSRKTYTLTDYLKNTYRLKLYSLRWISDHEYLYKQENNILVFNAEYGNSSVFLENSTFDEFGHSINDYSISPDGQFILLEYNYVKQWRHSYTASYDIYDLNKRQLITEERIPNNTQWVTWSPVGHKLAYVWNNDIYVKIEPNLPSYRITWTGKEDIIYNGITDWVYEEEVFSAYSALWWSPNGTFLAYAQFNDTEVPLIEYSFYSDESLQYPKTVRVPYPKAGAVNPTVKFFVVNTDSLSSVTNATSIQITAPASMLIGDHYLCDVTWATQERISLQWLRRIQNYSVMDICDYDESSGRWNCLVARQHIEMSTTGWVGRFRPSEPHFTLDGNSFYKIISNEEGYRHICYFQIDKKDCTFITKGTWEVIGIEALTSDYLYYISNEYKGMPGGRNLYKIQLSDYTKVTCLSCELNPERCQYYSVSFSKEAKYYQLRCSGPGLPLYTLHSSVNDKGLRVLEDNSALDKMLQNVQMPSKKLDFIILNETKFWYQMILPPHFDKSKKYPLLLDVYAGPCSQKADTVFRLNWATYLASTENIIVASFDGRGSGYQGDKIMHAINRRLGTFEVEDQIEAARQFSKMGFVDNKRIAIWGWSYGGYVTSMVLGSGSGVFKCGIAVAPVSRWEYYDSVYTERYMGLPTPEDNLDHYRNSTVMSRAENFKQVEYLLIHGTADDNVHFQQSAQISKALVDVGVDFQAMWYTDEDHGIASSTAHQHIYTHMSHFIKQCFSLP", "assay": "Stability in plasma (unknown origin) assessed as DPP4-mediated drug degradation by measuring half life", "format": "ADME"}}, "note": "Positions of bridges follow the written chain, without caps; N, C: chain ends. Residues, ends and D or L forms follow the SMILES beside them."}
{"compound": "CSCC[C@@H]1NC(=O)CNC(=O)[C@H](CCC(=O)O)NC(=O)[C@@H]2CSSC[C@H](NC(=O)[C@@H](N)Cc3ccc(O)cc3)C(=O)N[C@@H](CCC(N)=O)C(=O)N[C@@H](CCCCN)C(=O)N[C@@H](Cc3c[nH]c4ccccc34)C(=O)N[C@@H](CCSC)C(=O)N[C@@H](Cc3c[nH]c4ccccc34)C(=O)N[C@@H]([C@@H](C)O)C(=O)N[C@H]3CSSC[C@H](NC(=O)[C@H](C(C)C)NC1=O)C(=O)N[C@@H](CCCNC(=N)N)C(=O)N[C@@H](CC(C)C)C(=O)N[C@@H](Cc1c[nH]c4ccccc14)C(=O)N[C@H](C(=O)N[C@@H](CCCCN)C(=O)N[C@@H](CCCCN)C(=O)N[C@@H](CCCCN)C(=O)N[C@@H](CC(C)C)C(=O)N[C@@H](Cc1c[nH]c4ccccc14)C(=O)O)CSSC[C@H](NC(=O)[C@H](CCCCN)NC(=O)[C@H](CCCNC(=N)N)NC(=O)[C@H](CCC(=O)O)NC(=O)[C@H](CO)NC(=O)[C@H](CC(=O)O)NC3=O)C(=O)N2", "values": [{"measurement": "IC50", "setting": "[1]", "value": 26, "unit": "nM"}, {"measurement": "IC50", "setting": "[2]", "value": 41, "unit": "nM"}, {"measurement": "IC50", "setting": "[3]", "value": 79, "unit": "nM"}]}
{"compound": "CC[C@H](C)[C@H](NC(=O)[C@H](Cc1ccc(O)cc1)NC(=O)[C@H](Cc1cnc[nH]1)NC(=O)[C@@H]1CSSC[C@H](NC(=O)[C@@H]2CCCN2C(=O)[C@H](CCCNC(=N)N)NC(=O)[C@H](CC(C)C)NC(=O)[C@H](CC(=O)O)NC(=O)[C@@H]2CCCN2C(=O)[C@H](CCCCN)NC(=O)CNC(=O)CN)C(=O)N[C@@H](Cc2cnc[nH]2)C(=O)N2CCC[C@H]2C(=O)N2CCC[C@H]2C(=O)N1)C(=O)N1CCC[C@H]1C(=O)N[C@@H](CCCNC(=N)N)C(=O)N1CCC[C@H]1C(=O)N[C@@H](CCCCN)C(=O)N1CCC[C@H]1C(=O)N[C@@H](CCCNC(=N)N)C(=O)O", "note": "(H-GGKPDLRPCHPPCHYIPRPKPR-OH; disulfide 9-13)", "values": [{"measurement": "IC50", "setting": "[4]", "value": 50, "unit": "nM"}, {"measurement": "LD50", "setting": "[5]", "value": 0.33, "unit": "mg/kg"}]}
{"compound": "H-KEFLHPSKVDLPR-OH [SOR-C13]", "values": [{"measurement": "IC50", "setting": "[6]", "value": 14, "unit": "nM"}]}
{"compound": "H-SDGTFTSDLSKQMEEEAVRLFIEWLKNGGPSGAPPPS-NH2", "values": [{"measurement": "half-life", "setting": "[7]", "value": 2, "unit": "min"}]}
